Assay results reported in patent US20090291887A1, “Proteins of the SDF-1-Family for the Manufacturing of a Medicament” (priority 2006, published 2009).

How the values were obtained:
DRG neurons = test: Myelin-inhibition assay (neurite growth of DRG neurons on laminin/myelin); assay type: cell-based, rat
Description: Spinal neurons from the dorsal root ganglia (DRG) of young rats (day 6 postnatal) were plated in parallel on culture substrates coated with either poly-D-lysine (PDL)/laminin (13 μg/ml) or PDL/laminin (13 μg/ml)+myelin (200 ng/culture). The myelin preparation has been obtained from rat brain by biochemical fractionation and employed as a suspension for coating the culture dishes.
The images shown in FIGS. 1-3 were recorded by immunofluorescence microscopy with PAM (panaxonal marker/neurofilament) antibody, and the visualization was effected by fluorescent dye (Alexa).

[1] = test system: Ser-133 phosphorylated CREB in DRG neurons; test: PhosphoCREB assay; assay type: cell-based, rat; conditions: P6 DRG neurons; 200 ng/ml; versus untreated cultures (FIG. 5)
Description: Determination of Ser-133 phosphorylated CREB was performed on glass coverslips coated with PDL (1 mg/ml, Sigma) and laminin (13 μg/ml, Sigma). Dissociated DRGs were plated at a density of 5×10^4 cells/cm2 and incubated in DMEM containing 10% fetal bovine serum, nerve growth factor-2.5S, penicilline/streptomycine, and 5′-fluoro-2′-desoxyuridine for 24 h. Cells were stimulated by application of either 200 ng/ml SDF-1a/CXCL12 or 6 μM forskolin (Sigma), respectively, for 1-120 min. Samples were fixed with […] and stained for phophoCREB. Nuclei of P6 DRG neurons were stained with DAPI. For quantitative analysis of phosphoCREB-immunoreactivity, 30 pictures per coverslip were taken randomly at 20× magnification, and the number of neurons displaying phosphoCREB-positive nuclei as well as the total number of neurons were determined.

CST-lesioned adult rats = test: Rat model of spinal cord transection, CST axon sprouting (BDA tracing); assay type: in vivo
Description: The dura was opened at the thoracic level, and the vertebrae Th8 and Th9 were removed. The dorsal CST, dorsal columns and central canal were transected using a Scouten wire knife (Bilaney, Germany). Following the surgery, a silicon tube catheter was placed in the subdural space at 1 mm caudal to the lesion, and was connected to a mini-osmotic pump (Alzet) containing 200 μl of either SDF-1a/CXCL12 (10 μM in PBS) or Tris buffer. After the pump was fixed in place, the dura and overlying tissue were sutured, and the animals were allowed to recover. Application of either SDF-1a/CXCL12 or Tris buffer was carried out at a flow rate of 1 μl/h over a time period of 7 days. One week after lesion, the pump was removed in a second surgery.
A total volume of 2.3 μl biotinylated dextrane amine, BDA, (10%, Molecular Probes) was stereotactically injected into both hemispheres of the sensorimotor cortex. […] Briefly, animals were transcardially perfused with 40% PFA. The spinal cord was removed, postfixed in 4% PFA, and cryoprotected in sucrose (30%, Sigma) for 3-5 days. Spinal cord samples were shock frozen in methyl butane and cut into 20 μm thick sagittal cryostat slices. Sections were collected onto Histobond coated glass slides (Menzel, Germany). […] Briefly, sections were washed in PBS followed by incubation with avidin-Oregon (1:1000, in PBS) at 4° C. over night. […]

With SDF-1α the “myelin-associated inhibition of neurite growth” value (DRG neurons; DRG neurons on PDL/laminin + myelin, SDF-1 Alpha 200 ng/ml (FIG. 3)) was “essentially neutralized”, the “neutralization of myelin inhibition, quantitative evaluation” value (DRG neurons; FIG. 4, dose dependence) was “dose-dependent neutralization” and the “myelin-induced inhibition of the neurite growth of DRG neurons in vitro” value (DRG neurons; concentration of 500 ng of SDF-1/ml) was “neutralized completely”. The “proportion of nuclei displaying phosphoCREB-immunoreactivity” value [1] was “significantly increased”, the “animals that displayed extensive sprouting” value (CST-lesioned adult rats; SDF-1a infusion, none out of three Tris buffer-infused rats) was “Two out of three” and the “sprouting of BDA-labelled CST axons within the proximal stump” value (CST-lesioned adult rats; subdural infusion by mini-osmotic pump, 10 μM, 1 μl/h, 7 days, versus Tris buffer (FIG. 6)) was “enhanced sprouting”.
